Assay results taken from ChEMBL document CHEMBL3046596, “Antinociceptive activities of some triazole and pyrazoline moieties-bearing compounds” (Med Chem Res, 2012).

Key:
Mus musculus [1] = experiment: Toxicity in Mus musculus Swiss albino (mouse) assessed as mortality at 100 mg/kg, ip; type: organism-based; parameters: dose 100 mg/kg, route intraperitoneal; conditions: in vivo
Mus musculus [2] = experiment: Toxicity in Mus musculus Swiss albino (mouse) assessed as vertical locomotor activity at 100 mg/kg, ip; type: organism-based; parameters: dose 100 mg/kg, route intraperitoneal; conditions: in vivo
Mus musculus [3] = experiment: Toxicity in Mus musculus Swiss albino (mouse) assessed as horizontal locomotor activity at 100 mg/kg, ip; type: organism-based; parameters: dose 100 mg/kg, route intraperitoneal; conditions: in vivo
Mus musculus [4] = experiment: Antinociceptive activity against formalin-induced pain in Mus musculus Swiss albino (mouse) assessed as inhibition of licking during second phase (15 to 30 min) at 100 mg/kg, ip administered 30 min before experimental session; type: functional; conditions: route intraperitoneal
Mus musculus [5] = experiment: Antinociceptive activity against formalin-induced pain in Mus musculus Swiss albino (mouse) assessed as inhibition of licking during first phase (0 to 5 min) at 100 mg/kg, ip administered 30 min before experimental session; type: functional; conditions: route intraperitoneal
Mus musculus [6] = experiment: Antinociceptive activity in Mus musculus Swiss albino (mouse) assessed as prolongation of reaction latency to mechanical stimuli at 100 mg/kg, ip administered 30 min before experimental session by tail-clip test; type: functional; conditions: route intraperitoneal
Mus musculus [7] = experiment: Antinociceptive activity in Mus musculus Swiss albino (mouse) assessed as increase in reaction (paw licking and jumping) latency to thermal stimulus at 100 mg/kg, ip administered 30 min before experimental session by hot plate test; type: functional; conditions: route intraperitoneal
Mus musculus [8] = experiment: Antinociceptive activity in Mus musculus Swiss albino (mouse) assessed as increase in reaction (paw licking and jumping) latency to thermal stimulus at 10 mg/kg, ip administered 30 min before experimental session by hot plate test; type: functional; conditions: route intraperitoneal
Mus musculus [9] = experiment: Antinociceptive activity in Mus musculus Swiss albino (mouse) assessed as prolongation of reaction latency to mechanical stimuli at 10 mg/kg, ip administered 30 min before experimental session by tail-clip test; type: functional; conditions: route intraperitoneal
Mus musculus [10] = species on record: Mus musculus; experiment: animal or person; conditions: Swiss albino, ip, read-out: INH
Description: Antinociceptive activity against formalin-induced pain in Mus musculus Swiss albino (mouse) assessed as inhibition of licking during second phase (15 to 30 min) at 10 mg/kg, ip administered 30 min before experimental session

Mus musculus [11] = species on record: Mus musculus; experiment: animal or person; conditions: Swiss albino, ip, read-out: INH; remark: listed apart in the source
Description: Antinociceptive activity against formalin-induced pain in Mus musculus Swiss albino (mouse) assessed as inhibition of licking during first phase (0 to 5 min) at 10 mg/kg, ip administered 30 min before experimental session

SMILES	Activity (Mus musculus [1])	Activity (Mus musculus [2])	Activity (Mus musculus [3])	inhibition in vivo at 100 mg/kg (Mus musculus [4]) [%]	inhibition in vivo at 100 mg/kg (Mus musculus [5]) [%]	MPE (Mus musculus [6]) [%]	Activity (Mus musculus [7]) [%]	Activity (Mus musculus [8]) [%]	MPE (Mus musculus [9]) [%]	inhibition in vivo at 10 mg/kg (Mus musculus [10]) [%]	inhibition in vivo at 10 mg/kg (Mus musculus [11]) [%]
Nn1c(CCc2ccc(O)cc2)nnc1SCC(=O)N1N=C(c2cccs2)CC1c1ccccc1 (stereo unspecified)	Non-toxic	Non-toxic	Non-toxic	79.2	66.6	80.2	79.4				
CN(C)c1ccc(C2CC(c3cccs3)=NN2C(=O)CSc2nnc(CCc3ccc(O)cc3)n2N)cc1 (stereo unspecified)	Non-toxic	Non-toxic	Non-toxic	38.9	31.3	36.5	38.5				
Nn1c(CCc2ccc(O)cc2)nnc1SCC(=O)N1N=C(c2cccs2)CC1c1ccc(F)cc1 (stereo unspecified)	Non-toxic	Non-toxic	Non-toxic	78.3	73.7	85	89				
Cc1ccc(C2CC(c3cccs3)=NN2C(=O)CSc2nnc(CCc3ccc(O)cc3)n2N)cc1 (stereo unspecified)	Non-toxic	Non-toxic	Non-toxic	42.5	35.4	53.5	50.3				
Nn1c(CCc2ccc(O)cc2)nnc1SCC(=O)N1N=C(c2cccs2)CC1c1ccc(Cl)cc1 (stereo unspecified)	Non-toxic	Non-toxic	Non-toxic	72.1	68.7	75.3	81.6				
Nn1c(CCc2ccc(O)cc2)nnc1SCC(=O)N1N=C(c2cccs2)CC1c1ccc2c(c1)OCO2 (stereo unspecified)	Non-toxic	Non-toxic	Non-toxic	37.3	32	36.2	45.1				
CN1CC[C@]23c4c5ccc(O)c4O[C@H]2[C@@H](O)C=C[C@H]3[C@H]1C5 [MORPHINE]								92.5	88.1	100	100
